Measured values as given in patent US10882869B2, “Condensed heterocyclic compounds and pesticides” (NISSAN CHEMICAL CORPORATION, priority 2015, dated 2021).

What was measured:
Type in all cases: in vivo
Ctenocephalides felis = assay: Test on the effect on Ctenocephalides felis (thin film in glass container); details: 96 h, application dose 10 μg/cm^2, adults, 4 days after release, 25° C.
Experimental: 350 μl of the solutions were applied to the bottoms and the side walls of glass containers with an inner wall surface area of 35 cm^2, and acetone was volatilized to prepare thin films of the compounds on the inner walls of the glass containers. Since the inner wall surface area of each glass container was 35 cm^2, the application dose was 10 μg/cm^2.
To each glass container, five adults (male and female) of Ctenocephalides felis were released, and the containers were covered with lids and placed in an incubator at 25° C. 4 Days after the release of the fleas, dead fleas were counted, and the mortality was calculated by using the same equation as in Test Example 1.

Nilaparvata lugens [1] = assay: Insecticidal test on Nilaparvata lugens (rice sheaths soaked); details: 144 h, 500 ppm solution, 3rd-instar larvae, 6 days after, 25° C.
Experimental: Rice sheaths were soaked in the solutions for about 10 seconds. After the soaking, the rice sheaths were dried in air and put in test tubes. In each tube, five 3rd-instar larvae of Nilaparvata lugens were released, and the tubes were capped with sponge and placed in an incubator at 25° C. 6 Days after, dead insects in the test tubes were counted, and the mortality (%) (the number of dead insects÷the number of released insects×100) was calculated. The test was carried out in duplicate.

Myzus persicae = assay: Insecticidal test on Myzus persicae (cabbage leaf spray); details: 144 h, 500 ppm solution sprayed (2.5 mg/cm^2), apterous adults on cabbage leaves, 6 days after, 25° C.
Experimental: Wet absorbent cotton was laid on glass dishes having an inner diameter of 3 cm, and covered with leaves of cabbage cut into circles of the same diameter, and 4 apterous adults of Myzus persicae were released. […] The solutions were sprayed from a rotary spray tower (2.5 mg/cm^2), and the dishes were covered with lids and placed in an incubator at 25° C. 6 Days after, dead insects were counted, and the mortality was calculated by using the same equation as in Test Example 1. The test was carried out in duplicate.

Plutella xylostella [2] = assay: Insecticidal test on Plutella xylostella (cabbage leaves soaked); details: 144 h, 500 ppm solution, 3rd-instar larvae, 6 days after, 25° C.
Experimental: (§1) Leaves of cabbage were soaked in the solutions for about 10 seconds. After the soaking, the leaves were dried in air and placed in dishes. In each dish, five 3rd-instar larvae of Plutella xylostella were released, and the dishes were covered with lids and placed in an incubator at 25° C. 6 Days after, dead insects in the dishes were counted, and the mortality was calculated by using the same equation as in Test Example 1. The test was carried out in duplicate.

Spodoptera litura = assay: Insecticidal test on Spodoptera litura (cabbage leaves soaked); details: 144 h, 500 ppm solution, 3rd-instar larvae, 6 days after, 25° C.
Experimental: as §1, with “Spodoptera litura” for “Plutella xylostella”

Plutella xylostella [3] = assay: Soil irrigation test on Plutella xylostella; details: 144 h, 500 ppm solution, 10 ml soil irrigation of cabbage seedlings, leaves picked 5 days after, 3rd-instar larvae, 6 days after
Experimental: The soil around the bases of cabbage seedlings (at the 2.5-leaf stage) planted in plastic cups was irrigated with 10 ml of the solutions. After the irrigation, the cabbage seedlings were placed in a greenhouse. 5 Days after the irrigation, leaves of cabbage were picked and placed in dishes. In each dish, five 3rd-instar larvae of Plutella xylostella were released, and the dishes were covered with lids and placed in an incubator at 25° C. 6 Days after, dead insects in the dishes were counted, and the mortality was calculated by using the same equation as in Test Example 1. The test was carried out in duplicate.

Nilaparvata lugens [4] = assay: Systemic insecticidal test on Nilaparvata lugens (rice seedling root dip); details: 20 ppm solution, rice seedling roots dipped 7 days, 3rd-instar larvae, 6 days after release, 25° C.
Experimental: 7 Days after, the rice seedlings were picked and put in test tubes, and in each tube, five 3rd-instar larvae of Nilaparvata lugens were released, and the tubes were capped with sponge and placed in an incubator at 25° C. 6 Days after the release of the insects, dead insects were counted, and the mortality (%) (the number of dead insects÷the number of released insects×100) was calculated. The test was carried out in duplicate.

SMILES: CCSc1c(-n2cc3cnc(C(F)(F)F)cc3n2)nc2cc(C(F)(F)F)ccn12 [1-11-001b, 2-[3-(ethylthio)-7-(trifluoromethyl)imidazo[1,2-a]pyridin-2-yl]-6-(trifluoromethyl)-2H-pyrazolo[4,3-c]pyridine]
- mortality at 10 µg/cm2 (Ctenocephalides felis): ≥ 50%
- mortality at 500 ppm (Nilaparvata lugens [1]): ≥ 90%
- mortality at 500 ppm (Myzus persicae): ≥ 90%
- mortality at 500 ppm (Plutella xylostella [2]): ≥ 90%
- mortality at 500 ppm (Spodoptera litura): ≥ 90%

SMILES: CCS(=O)(=O)c1c(-c2cn3cc(C(F)(F)F)sc3n2)nc2ccc(C(F)(F)F)cn12 [1-12-001a, 6-[3-(ethylsulfonyl)-6-(trifluoromethyl)imidazo[1,2-a]pyridin-2-yl]-2-(trifluoromethyl)imidazo[2,1-b]thiazole]
- mortality at 10 µg/cm2 (Ctenocephalides felis): ≥ 50%
- mortality at 500 ppm (Myzus persicae): ≥ 90%
- mortality at 500 ppm (Plutella xylostella [2]): ≥ 90%
- mortality at 500 ppm (Spodoptera litura): ≥ 90%

SMILES: CCSc1c(-n2cc3ncc(C(F)(F)F)cc3n2)nc2cc(C(F)(F)F)ccn12 [1-10-002b, 2-[3-(ethylthio)-7-(trifluoromethyl)imidazo[1,2-a]pyridin-2-yl]-6-(trifluoromethyl)-2H-pyrazolo[4,3-b]pyridine]
- mortality at 10 µg/cm2 (Ctenocephalides felis): ≥ 50%
- mortality at 500 ppm (Myzus persicae): ≥ 90%
- mortality at 500 ppm (Plutella xylostella [2]): ≥ 90%
- mortality at 500 ppm (Spodoptera litura): ≥ 90%

SMILES: CCS(=O)(=O)c1c(-c2nc3cc(C(F)(F)F)cnc3n2C)nc2cc(C(F)(F)F)c(Br)cn12 [1-1-023a, 2-[6-bromo-3-(ethylsulfonyl)-7-(trifluoromethyl)imidazo[1,2-a]pyridin-2-yl]-3-methyl-6-(trifluoromethyl)-3H-imidazo[4,5-b]pyridine]
- mortality at 10 µg/cm2 (Ctenocephalides felis): ≥ 50%
- mortality at 500 ppm (Nilaparvata lugens [1]): ≥ 90%
- mortality at 500 ppm (Myzus persicae): ≥ 90%
- mortality at 500 ppm (Plutella xylostella [2]): ≥ 90%
- mortality at 500 ppm (Spodoptera litura): ≥ 90%

SMILES: CCS(=O)(=O)c1c(-c2nc3cc(SC(F)(F)F)cnc3n2C)nc2cc(C(F)(F)F)ccn12 [1-1-027a, 2-[3-(ethylsulfonyl)-7-(trifluoromethyl)imidazo[1,2-a]pyridin-2-yl]-3-methyl-6-((trifluoromethyl)thio)-3H-imidazo[4,5-b]pyridine]
- mortality at 10 µg/cm2 (Ctenocephalides felis): ≥ 50%
- mortality at 500 ppm (Myzus persicae): ≥ 90%
- mortality at 500 ppm (Plutella xylostella [2]): ≥ 90%
- mortality at 500 ppm (Spodoptera litura): ≥ 90%

SMILES: CCS(=O)(=O)c1c(-c2nc3cc(C(F)(F)F)cnc3n2C)nc2cnc(C(F)(F)F)cn12 [1-1-029a, 2-[3-(ethylsulfonyl)-6-(trifluoromethyl)imidazo[1,2-a]pyrazin-2-yl]-3-methyl-6-(trifluoromethyl)-3H-imidazo[4,5-b]pyridine]
- mortality at 10 µg/cm2 (Ctenocephalides felis): ≥ 50%
- pest or weed control at 500 ppm (Plutella xylostella [3]): ≥ 90%
- mortality at 500 ppm (Plutella xylostella [2]): ≥ 90%
- mortality at 500 ppm (Spodoptera litura): ≥ 90%

SMILES: CCS(=O)(=O)c1c(-n2cc3cnc(C(F)(F)F)cc3n2)nc2cc(C(F)(F)F)ccn12 [1-11-001a, 2-[3-(ethylsulfonyl)-7-(trifluoromethyl)imidazo[1,2-a]pyridin-2-yl]-6-(trifluoromethyl)-2H-pyrazolo[4,3-c]pyridine]
- mortality at 10 µg/cm2 (Ctenocephalides felis): ≥ 50%
- mortality at 500 ppm (Nilaparvata lugens [1]): ≥ 90%
- pest or weed control at 500 ppm (Plutella xylostella [3]): ≥ 90%
- mortality at 500 ppm (Myzus persicae): ≥ 90%
- mortality at 500 ppm (Plutella xylostella [2]): ≥ 90%
- mortality at 20 ppm (Nilaparvata lugens [4]): ≥ 90%
- mortality at 500 ppm (Spodoptera litura): ≥ 90%

SMILES: CCS(=O)(=O)c1c(-c2nc3cc([S+]([O-])C(F)(F)F)ccc3o2)nc2ccc(C(F)(F)F)cn12 (stereo not drawn) [1-2-002a, 2-[3-(ethylsulfonyl)-6-(trifluoromethyl)imidazo[1,2-a]pyridin-2-yl]-5-[(trifluoromethyl)sulfinyl]benz[d]oxazole]
- mortality at 500 ppm (Nilaparvata lugens [1]): ≥ 90%
- mortality at 500 ppm (Myzus persicae): ≥ 90%
- mortality at 500 ppm (Plutella xylostella [2]): ≥ 90%
- mortality at 20 ppm (Nilaparvata lugens [4]): ≥ 90%
- mortality at 500 ppm (Spodoptera litura): ≥ 90%

SMILES: CCS(=O)(=O)c1c(-c2nc3cc(S(=O)(=O)C(F)(F)F)ccc3o2)nc2ccc(C(F)(F)F)cn12 [1-2-001a, 2-[3-(ethylsulfonyl)-6-(trifluoromethyl)imidazo[1,2-a]pyridin-2-yl]-5-[(trifluoromethyl)sulfonyl]benz[d]oxazole]
- mortality at 10 µg/cm2 (Ctenocephalides felis): ≥ 50%
- mortality at 500 ppm (Nilaparvata lugens [1]): ≥ 90%
- mortality at 500 ppm (Myzus persicae): ≥ 90%
- mortality at 500 ppm (Plutella xylostella [2]): ≥ 90%
- mortality at 500 ppm (Spodoptera litura): ≥ 90%

SMILES: CCS(=O)(=O)c1c(-c2cn3ccc(C(F)(F)F)cc3n2)nc2ccc(C(F)(F)F)cn12 [1-5-002a, 3-(ethylsulfonyl)-6,7′-bis(trifluoromethyl)-2,2′-biimidazo[1,2-a]pyridine]
- mortality at 10 µg/cm2 (Ctenocephalides felis): ≥ 50%
- mortality at 500 ppm (Nilaparvata lugens [1]): ≥ 90%
- mortality at 500 ppm (Myzus persicae): ≥ 90%
- mortality at 500 ppm (Plutella xylostella [2]): ≥ 90%
- mortality at 500 ppm (Spodoptera litura): ≥ 90%

SMILES: CCS(=O)(=O)c1c(-c2nc3cc(C(F)(F)F)nc(C)c3n2C)nc2ccc(C(F)(F)F)cn12 [1-8-003a, 2-[3-(ethylsulfonyl)-6-(trifluoromethyl)imidazo[1,2-a]pyridin-2-yl]-3,4-dimethyl-6-(trifluoromethyl)-3H-imidazo[4,5-c]pyridine]
- mortality at 10 µg/cm2 (Ctenocephalides felis): ≥ 50%
- pest or weed control at 500 ppm (Plutella xylostella [3]): ≥ 90%
- mortality at 500 ppm (Spodoptera litura): ≥ 90%

SMILES: CCS(=O)(=O)c1c(-c2cn3c(C)nc(C(F)(F)C(F)(F)F)cc3n2)nc2ccc(C(F)(F)F)cn12 [1-3-007a, 2-[3-(ethylsulfonyl)-6-(trifluoromethyl)imidazo[1,2-a]pyridin-2-yl]-5-methyl-7-(perfluoroethyl)imidazo[1,2-c]pyrimidine]
- mortality at 10 µg/cm2 (Ctenocephalides felis): ≥ 50%
- mortality at 500 ppm (Nilaparvata lugens [1]): ≥ 90%
- mortality at 500 ppm (Myzus persicae): ≥ 90%
- mortality at 500 ppm (Plutella xylostella [2]): ≥ 90%
- mortality at 20 ppm (Nilaparvata lugens [4]): ≥ 90%
- mortality at 500 ppm (Spodoptera litura): ≥ 90%

SMILES: CCS(=O)(=O)c1c(-c2nc3cc(C(F)(F)F)cnc3n2C)nc2sc(C(F)(F)F)cn12 [2-1-001a, 5-(ethylsulfonyl)-6-[3-methyl-6-(trifluoromethyl)-3H-imidazo[4,5-b]pyridin-2-yl]-2-(trifluoromethyl)imidazo[2,1-b]thiazole]
- mortality at 10 µg/cm2 (Ctenocephalides felis): ≥ 50%
- mortality at 500 ppm (Nilaparvata lugens [1]): ≥ 90%
- mortality at 500 ppm (Myzus persicae): ≥ 90%
- mortality at 500 ppm (Plutella xylostella [2]): ≥ 90%
- mortality at 500 ppm (Spodoptera litura): ≥ 90%

SMILES: CCS(=O)(=O)c1c(-c2cn3ncc(C(F)(F)F)cc3n2)nc2cc(C(F)(F)F)ccn12 [1-4-001a, 2-[3-(ethylsulfonyl)-7-(trifluoromethyl)imidazo[1,2-a]pyridin-2-yl]-7-(trifluoromethyl)imidazo[1,2-b]pyridazine]
- mortality at 10 µg/cm2 (Ctenocephalides felis): ≥ 50%
- pest or weed control at 500 ppm (Plutella xylostella [3]): ≥ 90%
- mortality at 500 ppm (Myzus persicae): ≥ 90%
- mortality at 500 ppm (Plutella xylostella [2]): ≥ 90%
- mortality at 500 ppm (Spodoptera litura): ≥ 90%

SMILES: CCS(=O)(=O)c1c(-c2nc3cc(C(F)(F)C(F)(F)F)ncn3c2Br)nc2ccc(C(F)(F)F)cn12 [1-3-010a, 3-bromo-2-[3-(ethylsulfonyl)-6-(trifluoromethyl)imidazo[1,2-a]pyridin-2-yl]-7-(perfluoroethyl)imidazo[1,2-c]pyrimidine]
- mortality at 10 µg/cm2 (Ctenocephalides felis): ≥ 50%
- mortality at 500 ppm (Myzus persicae): ≥ 90%
- mortality at 500 ppm (Spodoptera litura): ≥ 90%

SMILES: CCS(=O)(=O)c1c(-n2cc3ncc(C(F)(F)F)cc3n2)nc2cc(C(F)(F)F)ccn12 [1-10-002a, 2-[3-(ethylsulfonyl)-7-(trifluoromethyl)imidazo[1,2-a]pyridin-2-yl]-6-(trifluoromethyl)-2H-pyrazolo[4,3-b]pyridine]
- mortality at 10 µg/cm2 (Ctenocephalides felis): ≥ 50%
- pest or weed control at 500 ppm (Plutella xylostella [3]): ≥ 90%
- mortality at 500 ppm (Myzus persicae): ≥ 90%
- mortality at 500 ppm (Plutella xylostella [2]): ≥ 90%
- mortality at 500 ppm (Spodoptera litura): ≥ 90%

SMILES: CCS(=O)(=O)c1c(-c2cn3cc(C(F)(F)F)ncc3n2)nc2ccc(C(F)(F)F)cn12 [1-6-002a, 2-[3-(ethylsulfonyl)-6-(trifluoromethyl)imidazo[1,2-a]pyridin-2-yl]-6-(trifluoromethyl)imidazo[1,2-a]pyrazine]
- mortality at 500 ppm (Myzus persicae): ≥ 90%
- mortality at 500 ppm (Plutella xylostella [2]): ≥ 90%
- mortality at 500 ppm (Spodoptera litura): ≥ 90%
